Laboratory results published in patent US20130190240A1, “TUMOR GROWTH CONTROLLING METHOD TARGETING GALACTOSYLCERAMIDE EXPRESSION FACTOR-1” (priority 2010, published 2013).
Square brackets hold non-standard residues; d marks the D form. Ends that are not written are not given here.

What was measured:
COLO205 cells [1] = assay: in vivo anti-tumor growth effect of r9-OP10-11 on established COLO205 tumor in nude mice; parameters: species or system human; conditions: tumor already formed; 35 nmol in PBS around the tumor, four weekly administrations
Description: 1.0×10^6 COLO205 cells were inoculated subcutaneously into nude mice to prepare tumor of COLO205 cells. At 10 days after inoculation, a solution of r9-OP10-11 (35 nmol)/PBS was administered in a volume of 0.1 ml around the tumor whose diameter reached 5 to 6 mm (about 100 mm^3) At 7, 14 and 21 days after this administration, the same administration was repeated. The long and short axes of tumor were measured to calculate the tumor volume (=long axis×(short axis)^2×π/6). After the mice were finally euthanized with carbon dioxide gas, tumor in each mouse was photographed. Subsequently, the tumor was excised and measured for its wet weight.

KOP2.16 cells = assay: tube formation inhibition test with GEF-1 siRNAs; assay type: cell-based, mouse; conditions: siRNA 40 nmol with lipofectamine 2000; transfected KOP2.16 cells seeded on Matrigel
Description: To confirm the in vitro anti-angiogenic effect of the GEF-1-siRNAs, a tube formation inhibition test was conducted using vascular endothelial KOP2.16 cells.
Each siRNA (40 nmol) and lipofectamine 2000 (10 μl) were mixed and then diluted to 1.0 ml with Opti-MEM I medium, and added to KOP2.16 cells in a 35 mm dish, which had been washed with Opti-MEM I medium. After 4 hours, 20% FBS-containing Opti-MEM I medium (1.0 ml) was added to the dish. After 48 hours, siRNA-transfected cells were collected and counted, and then suspended in Opti-MEM I medium and seeded again on Matrigel. After 18 to 48 hours, tube formation in the cells was observed. As negative controls, PBS (“None” in FIG. 15) and Stealth RNA Negative Control Medium GC Duplex (Invitrogen) (“siRNA-MNC” in FIG. 15) were used.

[2] = system: SMAD transcriptional activity; assay: SMAD transcriptional activity (luciferase) with GEF-1/C constituent oligopeptides, B16 cells; assay type: cell-based, mouse; conditions: oligopeptide 2.5 nmol with peptide transporter Wr-T, 48 hours
Description: Each GEF-1/C constituent oligopeptide (2.5 nmol) and a peptide transporter Wr-T (0.2 nmol) were mixed and then diluted to 0.1 ml with PBS, and mixed with a DNA solution for SMAD transcriptional activity testing (0.1 ml). To the respective cells (B16 cells and COLO205 cells) in a 48-well plate, which had been washed with Opti-MEM I medium, the mixture thus prepared was added in a volume of 0.2 ml per well. After 4 hours, 20% FBS/Opti-MEM I medium (0.2 ml) was added to each well. After 48 hours, the respective cells were lysed and the luciferase activity in each lysate was measured.

HeLa cells = assay: growth in soft agar medium, HeLa cells; assay type: cell-based, human; conditions: oligopeptide introduced with Wr-T
Description: (§1) A cell culture solution (1.5 ml), in which agarose (low gelling temperature agarose) was dissolved at a concentration of 0.5% (w/v), was added to a 35 mm dish, cooled and gelled. Onto the resulting gel, a 0.33% agarose/cell culture medium containing 5.0×10^3 cells was added in a volume of 1.5 ml. After gelling, the cells were cultured in a CO2 incubator for 2 weeks. A 0.005% (w/v) aqueous solution of crystal violet (0.5 ml) was added onto the gel and incubated overnight to stain the cells. The 35 mm dish was scanned with a scanner, and colony counts were measured from the resulting image using image analysis software.
(§2) The GEF-1/C constituent oligopeptides were studied for their inhibitory effect on the growth of various tumor cells (B16 cells, HeLa cells, COLO205 cells, KATO III cells, A549 cells and PT45 cells) in soft agar medium.
(§3) In the same manner as shown in (2) above, the GEF-1/C constituent oligopeptides were introduced into various tumor cells and these cells were seeded together with a 0.33% soft agar medium.

B16 cells [3] = assay: in vivo anti-tumor growth effect of oligopeptides, B16 cells in nude mice; parameters: species or system mouse; conditions: cells incubated with oligopeptide 25 nmol and Wr-T for 2 hours, then inoculated subcutaneously into nude mice
Description: Each GEF-1/C constituent oligopeptide (25 nmol) and a peptide transporter Wr-T (2 nmol) were mixed and then diluted to 0.1 ml with PBS, to which each cell suspension prepared at 5.0×10^6 cells/ml Opti-MEM I medium was then added in a volume of 0.1 ml and mixed. This cell mixture was incubated in a CO2 incubator at 37° C. for 2 hours and then inoculated subcutaneously into nude mice. The long and short axes of tumor were measured at intervals of a week to calculate the tumor volume (=long axis×(short axis)^2×π/6). After the mice were finally euthanized with carbon dioxide gas, tumor in each mouse was photographed. Subsequently, the tumor was excised and measured for its wet weight.

COLO205 cells [4] = assay: growth in soft agar medium, COLO205 cells; assay type: cell-based, human; conditions: oligopeptide introduced with Wr-T
Description: as §1, §2, §3

B16 cells [5] = assay: growth in soft agar medium, B16 cells; assay type: cell-based, mouse; conditions: oligopeptide introduced with Wr-T
Description: as §1, §2, §3

B16 cells [6] = assay: in vivo anti-tumor growth effect of siRNA#3, B16 tumor in nude mice; parameters: species or system mouse; conditions: siRNA#3/atelocollagen mixture injected near the tumor, three times at intervals of a week
Description: B 16 cells were inoculated subcutaneously into nude mice. After about a week when tumor reached about 5 mm diameter (about […]), an siRNA#3/atelocollagen mixture (0.2 ml) was injected near the tumor. Subsequently, the same siRNA#3/atelocollagen mixture was further injected twice near the tumor at intervals of a week.

GEF-1 (Hrs/Hgs) = assay: GEF-1 (Hgs) expression level by Western blotting in shRNA-expressing B16 cells; assay type: cell-based, mouse; conditions: B16 cells stably expressing the shRNA
Description: (§4) The respective shRNA expression vectors prepared in i) above were each introduced into B16 cells by gene transfer and subjected to drug selection using G418 drug (1 mg/ml). B16 cells expressing the respective shRNAs (B16/shRNA-74 cells, B16/shRNA-157 cells and B16/shRNA-207 cells) were finally obtained by cloning. These cells were confirmed for their GEF-1 expression levels by Western blotting and also examined for their ability of cell migration using a Boyden chamber.

B16 cells [7] = assay: cell migration ability of shRNA-expressing B16 cells, Boyden chamber; assay type: cell-based, mouse; conditions: B16 cells stably expressing the shRNA
Description: as §4

Substance: r9-OP10-11: OP10-11 linked to a cell membrane permeable peptide, rrrrrrrrrGPGEYLEVQRQLA (r = D-arginine) (SEQ ID NO: 67) ([dR][dR][dR][dR][dR][dR][dR][dR][dR]GPGEYLEVQRQLA)
- inhibition of growth of COLO205 cell tumor in tumor volume (COLO205 cells [1]): about 65%
- inhibition of growth of COLO205 cell tumor in tumor weight (COLO205 cells [1]): about 60%

Substance: siRNA#2: stealth RNAi against mouse Hgs; sense 5′-GGACGAUACUCGUCGACUUGUUCUU (SEQ ID NO: 32, 33) (antisense AAGAACAAGUCGACGAGUAUCGUCC; listed as RNA, chemistry not given here)
- inhibitory effect on tube formation (KOP2.16 cells): significant inhibitory effect

Substance: OP10-7: GEF-1/C constituent oligopeptide ALSALREEHR (SEQ ID NO: 60)
- inhibition of SMAD transcriptional activity [2]: about 50%

Substance: OP10-11: GEF-1/C constituent oligopeptide EYLEVQRQLA (SEQ ID NO: 64)
- inhibition of growth ability in soft agar medium (HeLa cells): about 20%
- inhibition of B16 cell tumor growth (B16 cells [3]): ≥ 50%
- inhibition of growth ability in soft agar medium (COLO205 cells [4]): about 50%
- inhibition of growth ability in soft agar medium (B16 cells [5]): about 60%
- inhibition of SMAD transcriptional activity [2]: about 50%

Substance: siRNA#3: stealth RNAi against mouse Hgs; sense 5′-UAGAAUGGACUCCCAGUCUGACUCC (SEQ ID NO: 34, 35) (antisense GGAGUCAGACUGGGAGUCCAUUCUA; listed as RNA, chemistry not given here)
- tumor volume as compared to PBS or siRNA#3-scramble (B16 cells [6]): ≤ 50%
- tumor weight as compared to PBS or siRNA#3-scramble (B16 cells [6]): ≤ 50%
- inhibitory effect on tube formation (KOP2.16 cells): significant inhibitory effect

Substance: OP10-12: GEF-1/C constituent oligopeptide IQRLQEQEKE (SEQ ID NO: 65)
- inhibition of SMAD transcriptional activity [2]: about 50%

Substance: OP10-10: GEF-1/C constituent oligopeptide KLEIMRQKKQ (SEQ ID NO: 63)
- inhibition of growth ability in soft agar medium (COLO205 cells [4]): about 50%

Substance: shRNA-157: shRNA against mouse GEF-1 (Hrs/Hgs) gene, Hgs157 template SEQ ID NO: 26; B16/shRNA-157 cells used as B16/shRNA cells (DNA CCGTTAATGATAAGAACCCACTTCAAGAGAGTGGGTTCTTATCATTAACTTTTTA)
- inhibition of Hgs expression (GEF-1 (Hrs/Hgs)): 95%
- inhibition of cell migration ability (B16 cells [7]): 95%
